The record followed here is patent US4428952A, “Substituted pyrrolo[2,1-b]quinazolines and pyrido[2,1-b]quinazolines useful for the treatment of or the prevention of gastrointestinal ulcers” (Farmitalia Carlo Erba S.p.A., priority 1981, dated 1984).

Molecules are shown by their SMILES. Bounds are passed on as bounds.

In one data set the test system is restraint ulcers. The experiment in a line: inhibition of restraint ulcers in rats (Bonfils et al.). Type of data set: in vivo, rat (Sprague-Dawley male). To be noted: po; rat, p.o. one hour before immobilization; approximate values; lesions counted 4 hours after immobilization; read-out: Anti-ulcerogenic activity ED50 p.o. As for the experimental part:
The anti-ulcerogenic activity of the compounds of the invention is shown, e.g., by the fact that they are active in the test of the inhibition of restraint ulcers in rats, according to the method of Bonfils et al., (Therapie, 1960, 5, 1096; Jap. J. Pharmac. 1945, 43, 5).
The tested compound was administered per os (p.o.) one hour before the immobilization. Six Sprague-Dawley male rats (100-120 g) fasted 24 hours were used for the experiment: a square flexible small-mesh wire netting was used for the immobilization and 4 hours after the immobilization the rats were sacrificed, their stomachs were removed and the lesions counted under a dissecting microscope.

For data set [1], the system named is syndrome induced by oxotremorine. The data set is described as follows: antagonism against syndrome induced by oxotremorine in mice (Leszkovszky and Tardos); anticholinergic activity. The data set is classed as in vivo, mouse. Particulars: 100 mg/kg, oral administration. The text has this:
Considering that many anti-ulcer agents display, as does atropine, a remarkable but undesired anti-cholinergic activity, the compounds of the invention have been assessed for their antagonism against syndrome induced by oxotremorine in mice, according to the method described by Leszkovszky G. P. and Tardos L. (Europ. J.Pharmac. 1971, 15, 310).

Data set [2] is described as follows: acute toxicity (LD50), single administration of increasing doses. To be noted: in vivo, po, mouse, per os, measured on the seventh day of treatment, read-out: approximate acute toxicity (LD50). The text has this: In view of their high therapeutic index the compounds of the invention can be safely used in medicine. For example, the approximate acute toxicity (LD50) of the compounds 3-benzylidene-1,2,3,9-tetrahydro-9-oxo-pyrrolo[2,1-b]quinazoline-7-carboxylic acid; 3-benzylidene-1,2,3,9-tetrahydro-9-oxo-pyrrolo[2,1-b]quinazoline-6-carboxylic acid; 6-benzylidene-6,7,8,9-tetrahydro-11-oxo-11H-pyrido[2,1-b]quinazoline-2-carboxylic acid; 6-benzylidene-6,7,8,9-tetrahydro-11-oxo-11H-pyrido[2,1-b]quinazoline-3-carboxylic acid in mouse, determined with single administration of increasing doses and measured on the seventh day of treatment is per os higher than 800 mg/kg.

For the next data set, the system named is gastric secretion. The experiment in a line: inhibition of gastric secretion in rats (H. Shay et al.). The data set is classed as in vivo. Particulars: Rattus norvegicus, intraduodenal administration, approximate value, read-out: antisecretory activity ED50.

Consider `O=C(O)c1ccc2c(=O)n3c(nc2c1)C(=Cc1ccccc1)CC3` [3-benzylidene-1,2,3,9-tetrahydro-9-oxo-pyrrolo[2,1-b]quinazoline-6-carboxylic acid], for which, in the data set with restraint ulcers, the median effective dose (ED50) is approximately 10 mg/kg. Besides, the “antagonism against syndrome induced by oxotremorine” value (shortened to “antagonism against syndrome induced”) in data set [1] was “inactive”. The LD50 at 168 h in data set [2] was more than 800 mg/kg.

Consider `O=C(O)c1ccc2nc3n(c(=O)c2c1)CCC3=Cc1ccccc1` [3-benzylidene-1,2,3,9-tetrahydro-9-oxo-pyrrolo[2,1-b]quinazoline-7-carboxylic acid], for which the ED50 in the data set on restraint ulcers is approximately 8 mg/kg. For the same compound, in data set [1], the “antagonism against syndrome induced” value is “inactive”. Also, the LD50 at 168 h in data set [2] is more than 800 mg/kg.

`O=C(O)c1ccc2c(=O)n3c(nc2c1)C(=Cc1ccccc1)CCC3` [6-benzylidene-6,7,8,9-tetrahydro-11-oxo-11H-pyrido/2,1-b/quinazoline-3-carboxylic acid]: the ED50 was approximately 8 mg/kg with restraint ulcers and approximately 15 mg/kg in the data set on gastric secretion. Also, the “antagonism against syndrome induced” value in data set [1] is “inactive”. The LD50 at 168 h in data set [2] was more than 800 mg/kg.

As to `O=C(O)c1ccc2nc3n(c(=O)c2c1)CCCC3=Cc1ccccc1` [6-benzylidene-6,7,8,9-tetrahydro-11-oxo-11H-pyrido[2,1-b]quinazoline-2-carboxylic acid], the ED50 with restraint ulcers is approximately 9 mg/kg. In addition, in data set [1], the “antagonism against syndrome induced” value is “inactive”. Moreover, in data set [2], the LD50 at 168 h was more than 800 mg/kg.

In general, ED50 refers to the dose at which the effect has come halfway, by size or by number of responders. As usually defined, the LD50 is the dose expected to kill half of the subjects tested.
